# From ChEMBL document CHEMBL4387784, “Triterpenoids from Ganoderma gibbosum: A Class of Sensitizers of FLC-Resistant Candida albicans to Fluconazole” (2019)
# The source made the active and inactive calls. The rule behind the calls is not given here.
# Test system: Candida albicans
# Test: Antifungal activity against FLC-resistant Candida albicans assessed as inhibition of microbial growth at 200 ug/mL incubated for 24 hrs by microbroth dilution assay relative to untreated control
# Format: functional
# Settings: read-out: GI
row,Compound,inhibition of growth at 200 µg/mL
1,C/C(=C\C(=O)C[C@H](C)C(=O)O)[C@H]1C[C@H](O)[C@@]2(C)[C@]34O[C@@H]3C[C@H]3C(C)(C)C(=O)CC[C@]3(C)C4=CC(=O)[C@]12C,< 50%

# Test system: Candida albicans
# Test: Chemo-sensitization of fluconazole antifungal activity against FLC-resistant Candida albicans assessed as inhibition of microbial growth at 200 ug/mL in presence of fluconazole incubated for 24 hrs by microbroth dilution assay relative to untreated control
# Format: functional, organism-based
# Settings: not given
row,Compound,growth inhibition (GI)
1,C/C(=C\C(=O)C[C@H](C)C(=O)O)[C@H]1C[C@H](O)[C@@]2(C)C3=C(C=C[C@]12C)[C@@]1(C)CCC(=O)C(C)(C)[C@@H]1CC3=O,Active
2,C/C(=C\[C@H]1C[C@H](C)C(=O)O1)[C@H]1C[C@H](O)[C@]2(C)[C@]1(C)C(=O)C=C1[C@@]3(C)CCC(=O)C(C)(C)[C@@H]3C[C@H]3O[C@@]132,Active
3,C/C(=C\C(=O)C[C@H](C)C(=O)O)[C@H]1C[C@@H](O)[C@@]2(C)C3=C([C@@H](O)[C@H](O)[C@]12C)[C@@]1(C)CCC(=O)C(C)(C)[C@@H]1CC3=O,Active
4,C[C@@H](CC(=O)C[C@](C)(O)C1=C[C@@H](O)[C@]2(C)[C@]1(C)C(=O)C=C1[C@]23O[C@H]3C[C@H]2C(C)(C)[C@@H](O)CC[C@]12C)C(=O)O,Active
5,C[C@@H](CC(=O)C[C@](C)(O)C1=CC(=O)[C@]2(C)[C@]1(C)C(=O)C=C1[C@]23O[C@H]3C[C@H]2C(C)(C)C(=O)CC[C@]12C)C(=O)O,Active
6,C/C(=C\[C@@H]1C[C@H](C)C(=O)O1)[C@H]1C[C@H](O)[C@]2(C)[C@]1(C)C(=O)C=C1[C@@]3(C)CCC(=O)C(C)(C)[C@@H]3C[C@H]3O[C@@]132,Active
7,C=C(C)[C@@H]1C[C@H]2O[C@@]23C(=CC(=O)[C@]2(C)[C@@H](/C(C)=C/[C@H]4C[C@H](C)C(=O)O4)C[C@@H](O)[C@]23C)[C@@]1(C)CCC(=O)O,Active
8,C[C@@H](CC(=O)C[C@](C)(O)C1=CC(=O)[C@]2(C)[C@]1(C)C(=O)C=C1[C@]23O[C@H]3C[C@H]2C(C)(C)[C@@H](O)CC[C@]12C)C(=O)O,Active
9,C/C(=C\C(=O)C[C@H](C)C(=O)O)[C@H]1C[C@H](O)[C@@]2(C)C3=CC[C@H]4C(C)(C)C(=O)CC[C@]4(C)C3=CC(=O)[C@]12C,Active
10,C/C(=C\C(=O)C[C@H](C)C(=O)O)[C@H]1C[C@@H](O)[C@@]2(C)C3=C(C[C@H](O)[C@]12C)[C@@]1(C)CCC(=O)C(C)(C)[C@@H]1CC3=O,Active
11,C/C(=C\C(=O)C[C@H](C)C(=O)O)[C@H]1C[C@H](O)[C@@]2(C)[C@]34O[C@@H]3C[C@H]3C(C)(C)C(=O)CC[C@]3(C)C4=CC(=O)[C@]12C,Active

# Test system: Candida albicans
# Test: Antifungal activity against normal Candida albicans assessed as inhibition of microbial growth at 200 ug/mL incubated for 24 hrs by microbroth dilution assay relative to untreated control
# Format: functional
# Settings: read-out: GI
row,Compound,inhibition of growth at 200 µg/mL
1,C/C(=C\C(=O)C[C@H](C)C(=O)O)[C@H]1C[C@H](O)[C@@]2(C)C3=C(C=C[C@]12C)[C@@]1(C)CCC(=O)C(C)(C)[C@@H]1CC3=O,< 50%
2,C/C(=C\[C@H]1C[C@H](C)C(=O)O1)[C@H]1C[C@H](O)[C@]2(C)[C@]1(C)C(=O)C=C1[C@@]3(C)CCC(=O)C(C)(C)[C@@H]3C[C@H]3O[C@@]132,< 50%
3,C/C(=C\C(=O)C[C@H](C)C(=O)O)[C@H]1C[C@@H](O)[C@@]2(C)C3=C([C@@H](O)[C@H](O)[C@]12C)[C@@]1(C)CCC(=O)C(C)(C)[C@@H]1CC3=O,< 50%
4,C[C@@H](CC(=O)C[C@](C)(O)C1=C[C@@H](O)[C@]2(C)[C@]1(C)C(=O)C=C1[C@]23O[C@H]3C[C@H]2C(C)(C)[C@@H](O)CC[C@]12C)C(=O)O,< 50%
5,C[C@@H](CC(=O)C[C@](C)(O)C1=CC(=O)[C@]2(C)[C@]1(C)C(=O)C=C1[C@]23O[C@H]3C[C@H]2C(C)(C)C(=O)CC[C@]12C)C(=O)O,< 50%
6,C/C(=C\[C@@H]1C[C@H](C)C(=O)O1)[C@H]1C[C@H](O)[C@]2(C)[C@]1(C)C(=O)C=C1[C@@]3(C)CCC(=O)C(C)(C)[C@@H]3C[C@H]3O[C@@]132,< 50%
7,C=C(C)[C@@H]1C[C@H]2O[C@@]23C(=CC(=O)[C@]2(C)[C@@H](/C(C)=C/[C@H]4C[C@H](C)C(=O)O4)C[C@@H](O)[C@]23C)[C@@]1(C)CCC(=O)O,< 50%
8,C[C@@H](CC(=O)C[C@](C)(O)C1=CC(=O)[C@]2(C)[C@]1(C)C(=O)C=C1[C@]23O[C@H]3C[C@H]2C(C)(C)[C@@H](O)CC[C@]12C)C(=O)O,< 50%
9,C/C(=C\C(=O)C[C@H](C)C(=O)O)[C@H]1C[C@H](O)[C@@]2(C)C3=CC[C@H]4C(C)(C)C(=O)CC[C@]4(C)C3=CC(=O)[C@]12C,< 50%
10,C/C(=C\C(=O)C[C@H](C)C(=O)O)[C@H]1C[C@@H](O)[C@@]2(C)C3=C(C[C@H](O)[C@]12C)[C@@]1(C)CCC(=O)C(C)(C)[C@@H]1CC3=O,< 50%
11,C/C(=C\C(=O)C[C@H](C)C(=O)O)[C@H]1C[C@H](O)[C@@]2(C)[C@]34O[C@@H]3C[C@H]3C(C)(C)C(=O)CC[C@]3(C)C4=CC(=O)[C@]12C,55%

# Test system: Candida albicans
# Test: Chemo-sensitization of fluconazole antifungal activity against FLC-resistant Candida albicans assessed as inhibition of microbial growth in presence of fluconazole at 1:1 ratio of compound to fluconazole incubated for 24 hrs by microbroth dilution assay relative to untreated control
# Format: functional
# Settings: not given
row,Compound,MIC50
1,C/C(=C\C(=O)C[C@H](C)C(=O)O)[C@H]1C[C@H](O)[C@@]2(C)C3=C(C=C[C@]12C)[C@@]1(C)CCC(=O)C(C)(C)[C@@H]1CC3=O,5.1 µg/mL
2,C/C(=C\[C@H]1C[C@H](C)C(=O)O1)[C@H]1C[C@H](O)[C@]2(C)[C@]1(C)C(=O)C=C1[C@@]3(C)CCC(=O)C(C)(C)[C@@H]3C[C@H]3O[C@@]132,47.9 µg/mL
3,C[C@@H](CC(=O)C[C@](C)(O)C1=C[C@@H](O)[C@]2(C)[C@]1(C)C(=O)C=C1[C@]23O[C@H]3C[C@H]2C(C)(C)[C@@H](O)CC[C@]12C)C(=O)O,8.8 µg/mL
4,C[C@@H](CC(=O)C[C@](C)(O)C1=CC(=O)[C@]2(C)[C@]1(C)C(=O)C=C1[C@]23O[C@H]3C[C@H]2C(C)(C)C(=O)CC[C@]12C)C(=O)O,3.8 µg/mL
5,C/C(=C\[C@@H]1C[C@H](C)C(=O)O1)[C@H]1C[C@H](O)[C@]2(C)[C@]1(C)C(=O)C=C1[C@@]3(C)CCC(=O)C(C)(C)[C@@H]3C[C@H]3O[C@@]132,4.7 µg/mL
6,C=C(C)[C@@H]1C[C@H]2O[C@@]23C(=CC(=O)[C@]2(C)[C@@H](/C(C)=C/[C@H]4C[C@H](C)C(=O)O4)C[C@@H](O)[C@]23C)[C@@]1(C)CCC(=O)O,25.8 µg/mL
7,C[C@@H](CC(=O)C[C@](C)(O)C1=CC(=O)[C@]2(C)[C@]1(C)C(=O)C=C1[C@]23O[C@H]3C[C@H]2C(C)(C)[C@@H](O)CC[C@]12C)C(=O)O,28.3 µg/mL
8,C/C(=C\C(=O)C[C@H](C)C(=O)O)[C@H]1C[C@H](O)[C@@]2(C)C3=CC[C@H]4C(C)(C)C(=O)CC[C@]4(C)C3=CC(=O)[C@]12C,70 µg/mL
9,C/C(=C\C(=O)C[C@H](C)C(=O)O)[C@H]1C[C@H](O)[C@@]2(C)[C@]34O[C@@H]3C[C@H]3C(C)(C)C(=O)CC[C@]3(C)C4=CC(=O)[C@]12C,7.3 µg/mL
